{
  "source": "patent US12042557B2",
  "about": "“Rapid establishment and/or termination of substantial steady-state drug delivery” (Intarcia Therapeutics, Inc., priority 2009, dated 2024)",
  "origin": "cited, not measured here",
  "key": {"[1]": {"test_system": "subjects on metformin-only background treatment, type 2 diabetes mellitus"}, "[2]": {"conditions": "in vivo"}, "[3]": {"conditions": "Treatment F: oral 100 mg/day, subjects with baseline HbA1c less than 9.0"}, "[4]": {"conditions": "Treatment F: oral once a day 100 mg/day, metformin background, Bergenstal 2010"}},
  "note": "Read-outs that look alike come from different tables or passages of the source.",
  "data": [
    {"compound": "N[C@@H](CC(=O)N1CCn2c(nnc2C(F)(F)F)C1)Cc1cc(F)c(F)cc1F", "note": "[sitagliptin, Sitagliptin]", "values": [
      {"measurement": "change of HbA1c for the study", "setting": "[1]; [3]", "value": "−0.5", "unit": "%"},
      {"measurement": "endpoint HbA1c %", "setting": "[1]; [3]", "value": 7.2, "unit": "%"},
      {"measurement": "change of HbA1c for the study", "setting": "[1]; [4]", "value": "−0.9", "unit": "%"},
      {"measurement": "endpoint HbA1c %", "setting": "[1]; [4]", "value": 7.6, "unit": "%"},
      {"measurement": "percentage of subjects who achieved an HbA1c of 7% or less", "setting": "[1]; [4]", "value": 31, "unit": "%"}
    ]},
    {"compound": "PYY: 36 amino acid residue peptide amide [peptide YY]", "values": [
      {"measurement": "half-life", "setting": "[2]", "value": "approximately 8 minutes"}
    ]}
  ]
}
